In PubChem BioAssay (NCI):
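Five compound concentrations were applied to cells in 96-well plates for 48 hours; endpoints were derived by simple linear interpolation of the resulting dose-response curve. Here, GI50 denotes the concentration required for 50% inhibition of growth. TGI: total growth inhibition.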

What was measured:
Assay in all cases: NCI anticancer screen, dose series, 48 h
786-0 renal = tested on: 786-0 renal
A498 renal = tested on: A498 renal
A549 NSCLC = tested on: A549 NSCLC
ACHN renal = tested on: ACHN renal
BT-549 breast = tested on: BT-549 breast
CAKI-1 renal = tested on: CAKI-1 renal
CCRF-CEM leukemia = tested on: CCRF-CEM leukemia
COLO 205 colon = tested on: COLO 205 colon
DU-145 prostate = tested on: DU-145 prostate
EKVX NSCLC = tested on: EKVX NSCLC
HCC-2998 colon = tested on: HCC-2998 colon
HCT-116 colon = tested on: HCT-116 colon
HCT-15 colon = tested on: HCT-15 colon
HL-60(TB) leukemia = tested on: HL-60(TB) leukemia
HOP-62 NSCLC = tested on: HOP-62 NSCLC
HOP-92 NSCLC = tested on: HOP-92 NSCLC
HS 578T breast = tested on: HS 578T breast
HT29 colon = tested on: HT29 colon
IGROV1 ovarian = tested on: IGROV1 ovarian
K-562 leukemia = tested on: K-562 leukemia
KM12 colon = tested on: KM12 colon
LOX IMVI melanoma = tested on: LOX IMVI melanoma
M14 melanoma = tested on: M14 melanoma
MALME-3M melanoma = tested on: MALME-3M melanoma
MCF7 breast = tested on: MCF7 breast
MDA-MB-231 breast = tested on: MDA-MB-231 breast
MDA-MB-435 = tested on: MDA-MB-435
MDA-MB-468 breast = tested on: MDA-MB-468 breast
MOLT-4 leukemia = tested on: MOLT-4 leukemia
NCI-H226 lung = tested on: NCI-H226 lung
NCI-H23 lung = tested on: NCI-H23 lung
NCI-H460 lung = tested on: NCI-H460 lung
NCI-H522 lung = tested on: NCI-H522 lung
NCI/ADR-RES ovarian = tested on: NCI/ADR-RES ovarian
OVCAR-3 ovarian = tested on: OVCAR-3 ovarian
OVCAR-4 ovarian = tested on: OVCAR-4 ovarian
OVCAR-5 ovarian = tested on: OVCAR-5 ovarian
OVCAR-8 ovarian = tested on: OVCAR-8 ovarian
PC-3 prostate = tested on: PC-3 prostate
RPMI-8226 leukemia = tested on: RPMI-8226 leukemia
RXF 393 renal = tested on: RXF 393 renal
SF-268 CNS = tested on: SF-268 CNS
SF-295 CNS = tested on: SF-295 CNS
SF-539 CNS = tested on: SF-539 CNS
SK-MEL-2 melanoma = tested on: SK-MEL-2 melanoma
SK-MEL-28 melanoma = tested on: SK-MEL-28 melanoma
SK-MEL-5 melanoma = tested on: SK-MEL-5 melanoma
SK-OV-3 ovarian = tested on: SK-OV-3 ovarian
SN12C renal = tested on: SN12C renal
SNB-19 CNS = tested on: SNB-19 CNS
SNB-75 CNS = tested on: SNB-75 CNS
SR leukemia = tested on: SR leukemia
SW-620 colon = tested on: SW-620 colon
T-47D breast = tested on: T-47D breast
TK-10 renal = tested on: TK-10 renal
U251 CNS = tested on: U251 CNS
UACC-257 melanoma = tested on: UACC-257 melanoma
UACC-62 melanoma = tested on: UACC-62 melanoma
UO-31 renal = tested on: UO-31 renal

COP(=O)(CC(F)(F)C(F)(F)F)OC
GI50 (786-0 renal): 6.27 µM
TGI (786-0 renal): 20.4 µM
GI50 (A498 renal): 22.1 µM
TGI (A498 renal): 41.1 µM
GI50 (A549 NSCLC): 22.1 µM
TGI (A549 NSCLC): 53.1 µM
GI50 (ACHN renal): 2.12 µM
TGI (ACHN renal): 4.52 µM
GI50 (BT-549 breast): 6.26 µM
TGI (BT-549 breast): 20.4 µM
GI50 (CAKI-1 renal): 2.6 µM
TGI (CAKI-1 renal): 6.49 µM
GI50 (CCRF-CEM leukemia): 2.43 µM
TGI (CCRF-CEM leukemia): 8.68 µM
GI50 (COLO 205 colon): 1.99 µM
TGI (COLO 205 colon): 3.62 µM
GI50 (DU-145 prostate): 10.5 µM
TGI (DU-145 prostate): 24.5 µM
GI50 (EKVX NSCLC): 2.71 µM
TGI (EKVX NSCLC): 8.33 µM
GI50 (HCC-2998 colon): 13.6 µM
TGI (HCC-2998 colon): 27 µM
GI50 (HCT-116 colon): 2.21 µM
TGI (HCT-116 colon): 5.99 µM
GI50 (HCT-15 colon): 1.76 µM
TGI (HCT-15 colon): 4.93 µM
GI50 (HL-60(TB) leukemia): 2.15 µM
TGI (HL-60(TB) leukemia): 5.33 µM
GI50 (HOP-62 NSCLC): 22.7 µM
TGI (HOP-62 NSCLC): 52.7 µM
GI50 (HOP-92 NSCLC): 3.89 µM
TGI (HOP-92 NSCLC): 13.1 µM
GI50 (HS 578T breast): 15.1 µM
TGI (HS 578T breast): 79.4 µM
GI50 (HT29 colon): 2.46 µM
TGI (HT29 colon): 5.17 µM
GI50 (IGROV1 ovarian): 19.9 µM
TGI (IGROV1 ovarian): 42.5 µM
GI50 (K-562 leukemia): 2.93 µM
TGI (K-562 leukemia): 14.3 µM
GI50 (KM12 colon): 19.4 µM
TGI (KM12 colon): 40.1 µM
GI50 (LOX IMVI melanoma): 1.7 µM
TGI (LOX IMVI melanoma): 3.54 µM
GI50 (M14 melanoma): 1.8 µM
TGI (M14 melanoma): 3.77 µM
GI50 (MALME-3M melanoma): 2.32 µM
TGI (MALME-3M melanoma): 5.62 µM
GI50 (MCF7 breast): 2.05 µM
TGI (MCF7 breast): 10.5 µM
GI50 (MDA-MB-231 breast): 8.95 µM
TGI (MDA-MB-231 breast): 22.9 µM
GI50 (MDA-MB-435): 6.7 µM
TGI (MDA-MB-435): 22.4 µM
GI50 (MDA-MB-468 breast): 1.35 µM
TGI (MDA-MB-468 breast): 3.16 µM
GI50 (MOLT-4 leukemia): 3.06 µM
TGI (MOLT-4 leukemia): 10.8 µM
GI50 (NCI-H226 lung): 23.2 µM
TGI (NCI-H226 lung): 73.1 µM
GI50 (NCI-H23 lung): 7.36 µM
TGI (NCI-H23 lung): 21.4 µM
GI50 (NCI-H460 lung): 18 µM
TGI (NCI-H460 lung): 38.1 µM
GI50 (NCI-H522 lung): 1.48 µM
TGI (NCI-H522 lung): 3.02 µM
GI50 (NCI/ADR-RES ovarian): 2.83 µM
TGI (NCI/ADR-RES ovarian): 10.2 µM
GI50 (OVCAR-3 ovarian): 3.44 µM
TGI (OVCAR-3 ovarian): 12.1 µM
GI50 (OVCAR-4 ovarian): 14 µM
TGI (OVCAR-4 ovarian): 30 µM
GI50 (OVCAR-5 ovarian): 17.5 µM
TGI (OVCAR-5 ovarian): 32.2 µM
GI50 (OVCAR-8 ovarian): 17.2 µM
TGI (OVCAR-8 ovarian): 84.2 µM
GI50 (PC-3 prostate): 7.87 µM
TGI (PC-3 prostate): 25.2 µM
GI50 (RPMI-8226 leukemia): 3.07 µM
TGI (RPMI-8226 leukemia): 8.49 µM
GI50 (RXF 393 renal): 1.33 µM
TGI (RXF 393 renal): 2.92 µM
GI50 (SF-268 CNS): 24.2 µM
TGI (SF-268 CNS): 64.2 µM
GI50 (SF-295 CNS): 16.5 µM
TGI (SF-295 CNS): 31.8 µM
GI50 (SF-539 CNS): 2.55 µM
TGI (SF-539 CNS): 7.21 µM
GI50 (SK-MEL-2 melanoma): 16.3 µM
TGI (SK-MEL-2 melanoma): 38.4 µM
GI50 (SK-MEL-28 melanoma): 1.87 µM
TGI (SK-MEL-28 melanoma): 3.89 µM
GI50 (SK-MEL-5 melanoma): 5.98 µM
TGI (SK-MEL-5 melanoma): 19.2 µM
GI50 (SK-OV-3 ovarian): 30.1 µM
TGI (SK-OV-3 ovarian): 76.1 µM
GI50 (SN12C renal): 18.5 µM
TGI (SN12C renal): 37.5 µM
GI50 (SNB-19 CNS): 24.8 µM
TGI (SNB-19 CNS): 77 µM
GI50 (SNB-75 CNS): 4.93 µM
TGI (SNB-75 CNS): 55.3 µM
GI50 (SR leukemia): 3.15 µM
TGI (SR leukemia): 12.2 µM
GI50 (SW-620 colon): 2.04 µM
TGI (SW-620 colon): 4.2 µM
GI50 (T-47D breast): 2.36 µM
TGI (T-47D breast): 7.99 µM
GI50 (TK-10 renal): 3.08 µM
TGI (TK-10 renal): 7.36 µM
GI50 (U251 CNS): 17.6 µM
TGI (U251 CNS): 38 µM
GI50 (UACC-257 melanoma): 1.94 µM
TGI (UACC-257 melanoma): 5.83 µM
GI50 (UACC-62 melanoma): 4.95 µM
TGI (UACC-62 melanoma): 18 µM
GI50 (UO-31 renal): 1.71 µM
TGI (UO-31 renal): 3.64 µM
